Data from US20230416168A1 (EUROCHEM ANTWERPEN, priority 2020, published 2023).

How the values were obtained:
[1] = test system: NH3 or NH2OH oxidation in N. europaea cells; experiment: Nitrosomonas europaea ammonia vs. hydroxylamine oxidation assay; assay type: cell-based; conditions: compounds 50 μM, NO2- after 30 min; for Nitrification from NH2OH (% compared to DMSO): 1 mM NH2OH as N-source; for Nitrification from NH3 (% compared to DMSO): NH4+ 1 mM as N-source
Procedure: Two days old, late-log phase cultures with a NO2− concentration between 10 and 20 mM were washed 3 times in fresh growth medium (without N) and finally 4 times overconcentrated via centrifugation (4000 rpm, 15 min, 4° C.). Transparent, flat bottom 96-well plate (Cat. No. 353072, Falcon® 96 Well Clear Flat Bottom Microplate, Corning®) were filled with 150 μl culture per well using a dispenser (Multidrop™ Combi Reagent Dispenser, Thermo Scientific™). Compounds (final concentration 50 μM) were added in triplicate to the multi-well plate by use of a Tecan robot (Freedom EVO®, Tecan). Thiourea (positive control for inhibition of NH3 oxidation—final concentration 100 μM) and phenylhydrazine hydrochloride (positive control for inhibition of NH2OH oxidation—final concentration 1 mM) were added to the outer two columns. Each plate was made in duplicate to add either 500 μM (NH4)2SO4 (final [NH4+]=1 mM) or 1 mM NH2OH. All plates were separately wrapped in Parafilm. Stacks of 4 plates were put on top of a 96-well plate filled with 100 μl MilliQ per well, covered with aluminum foil and shaken (±150 rpm) at 28° C. To prevent read-out of secondary effects on NO2− production, NO2− was measured only 30 min later. For this, the samples were first 2 times diluted by pipetting 15 μl in 15 μl fresh growth medium in 96-well intermediate plates (Cat. Ref. PCR-96-FS-C, 96-well PCR Microplate, Axygen®) to then mix 15 μl of the diluted samples with 15 μl Griess reagent in the wells of a transparent, flat bottom 384-well plate (Cat. No. X^7001, Low Profile Microplate, Molecular Devices) that was measured spectrophotometrically at 540 nm (EnVision, Perkin Elmer®).
To get insights on the targeted metabolic pathway and to discriminate between compounds that specifically affect NH3 oxidation or that affect another pathway, three representative novel nitrification inhibitors (Examples 1, 5 and 6) were tested in the “ammonia vs hydroxylamine oxidation assay” in which NO2− production from NH3 was compared with NO2− production from NH2OH.

Nitrosomonas europaea = experiment: Nitrification inhibition assay with Nitrosomonas europaea (nitrite level after 24 h); assay type: cell-based; conditions: for IC50 / activity at 100 µM: Nitrosomonas europaea; for IC50: 8-point dose response, 2 to 100 μM, read-out: IC50; for activity at 100 µM: tested concentration 100 μM, 24 h, normalized to DMSO (100%) and 100 μM DMP (0%), read-out: Nitrification (%) at tested concentration (0 = maximum activity)
Outline: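 Fivefold-concentrated N. europaea culture with ammonium incubated 24 h at 28 °C, shaken, with compound (single-point screen at 50 μM final; dose–response 2–100 μM, 8 points, 1.75-fold steps). Nitrite measured by Griess reagent at 540 nm, normalised per plate to 1% DMSO and 100 μM DMP controls; IC50 from logistic fit.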

Structure (SMILES) | Nitrification from NH2OH (% compared to DMSO) [1] [%] | Nitrification from NH3 (% compared to DMSO) [1] [%] | nitrification inhibition, in words (Nitrosomonas europaea) | IC50 (Nitrosomonas europaea) [µM] | activity at 100 µM (Nitrosomonas europaea) [%] | Average nitrification [%] in Nitrosomonas europaea (Nitrosomonas europaea; 2 μM) [%] | Average nitrification [%] in Nitrosomonas europaea (Nitrosomonas europaea; 3.5 μM) [%] | Average nitrification [%] in Nitrosomonas europaea (Nitrosomonas europaea; 6 μM) [%] | Average nitrification [%] in Nitrosomonas europaea (Nitrosomonas europaea; 11 μM) [%] | Average nitrification [%] in Nitrosomonas europaea (Nitrosomonas europaea; 19 μM) [%] | Average nitrification [%] in Nitrosomonas europaea (Nitrosomonas europaea; 33 μM) [%] | Average nitrification [%] in Nitrosomonas europaea (Nitrosomonas europaea; 57 μM) [%] | Average nitrification [%] in Nitrosomonas europaea (Nitrosomonas europaea; 100 μM) [%]
CN(Cc1c(Cl)nc2sccn12)CN1CCSC1=S [Example 1, 3-[[(6-chloroimidazo[2,1-b][1,3]thiazol-5-yl)methyl-methylamino]methyl]-1,3-thiazolidine-2-thione] | 81 | 12 | strongly inhibited nitrification | < 2 | 0 | – | – | – | – | – | – | – | –
CN(Cc1nc2ccccc2s1)CN1CCOC1=S [Example 5, 3-[[1,3-benzothiazol-2-ylmethyl(methyl)amino]methyl]-1,3-oxazolidine-2-thione] | 77 | 17 | strong nitrification inhibition | 11 | 0 | – | – | – | – | – | – | – | –
S=C1NCCO1 [Example 7] | – | – | – | < 6 | 0 | – | – | – | – | – | – | – | –
S=c1[nH]ccs1 [Example 24, 3H-1,3-thiazole-2-thione] | – | – | nearly completely inhibits nitrification | 13 | 1 | 79 | 78 | 76 | 74 | 60 | 43 | 20 | 1
CSc1nccs1 [Example 25, 2-(methylsulfanyI)-1,3-thiazole] | – | – | – | 12 | 2 | 85 | 76 | 73 | 58 | 50 | 32 | 20 | 2
